Reference: article PMC10386649, “New Acetamide-Sulfonamide-Containing Scaffolds: Antiurease Activity Screening, Structure-Activity Relationship, Kinetics Mechanism, Molecular Docking, and MD Simulation Studies” (Molecules, 2023)
Like-named read-outs stand apart in the source and are kept apart here.

Tests used:
[1] = target: jack bean urease (Canavalia ensiformis, UniProt P07374); assay: biochemical; assay type: biochemical; details: for % Inhibition (urease): value in parentheses beside IC50; for urease inhibition (in words): qualitative statement
Sequence of jack bean urease (P07374 whole entry, looked up): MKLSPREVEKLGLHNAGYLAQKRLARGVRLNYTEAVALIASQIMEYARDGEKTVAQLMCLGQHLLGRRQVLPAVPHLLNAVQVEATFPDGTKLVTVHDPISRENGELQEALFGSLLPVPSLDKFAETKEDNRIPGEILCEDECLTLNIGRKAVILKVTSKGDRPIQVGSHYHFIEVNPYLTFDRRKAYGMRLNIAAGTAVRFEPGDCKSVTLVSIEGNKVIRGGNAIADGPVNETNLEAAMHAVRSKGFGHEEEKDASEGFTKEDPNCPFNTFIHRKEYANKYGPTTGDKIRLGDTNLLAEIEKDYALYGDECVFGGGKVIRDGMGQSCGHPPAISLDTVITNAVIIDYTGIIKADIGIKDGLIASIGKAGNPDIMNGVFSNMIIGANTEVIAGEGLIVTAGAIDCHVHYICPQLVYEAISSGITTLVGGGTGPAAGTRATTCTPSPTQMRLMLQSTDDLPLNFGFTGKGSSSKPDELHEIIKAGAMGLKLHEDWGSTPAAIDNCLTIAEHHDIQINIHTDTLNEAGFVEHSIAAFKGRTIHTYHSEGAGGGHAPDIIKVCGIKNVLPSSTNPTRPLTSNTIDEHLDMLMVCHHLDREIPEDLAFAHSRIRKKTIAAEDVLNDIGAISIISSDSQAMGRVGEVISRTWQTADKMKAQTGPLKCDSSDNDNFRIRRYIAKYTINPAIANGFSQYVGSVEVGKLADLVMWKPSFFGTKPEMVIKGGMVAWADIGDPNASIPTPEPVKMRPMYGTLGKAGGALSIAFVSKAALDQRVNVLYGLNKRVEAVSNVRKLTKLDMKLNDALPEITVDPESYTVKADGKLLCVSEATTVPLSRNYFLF
Experimental: Briefly, DMSO was used to dissolve the synthesized conjugates (inhibitors, 250–0.49 µM) and the reference urease inhibitor (thiourea). Each falcon tube contained the respective inhibitor (20 µL), buffer (K2HPO4, 100 µL, 50 mM, pH = 6.8), and jack bean urease (20 µL); each tube was mixed well; and the mixtures were incubated for 30 min at 37 °C. Each tube received 400 µL of urea (20 mM) as a substrate, which was then incubated for 10 min at the same temperature. Afterward, each tube received 400 µL of phenol reagent and 750 µL of alkali reagent containing 0.1% active chlorine and was left at 37 °C for 50 min. Following the use of a spectrophotometer (Labdex, LX210DS, London, UK) to measure absorbance of the mixture in each tube at 595 nm, Equation (1) below was used to compute the percentage of urease inhibition: (1) % Urease inhibition=1−T/C×100 where, T and C are the absorbance of each well containing inhibitor and blank, respectively. The results are presented as mean ± SEM. Using a regression equation where 50% inhibition was seen, the IC50 values of each inhibitor were determined.

[2] = target: urease (Canavalia ensiformis, UniProt P07374); assay: biochemical; assay type: biochemical, jack bean; details: for Mode of Inhibition: Lineweaver–Burk plot, inhibitor 0–20 µM, urea 0.5–4.0 mM; for Vmax (app): intercept, the maximum rate at 20 µM of inhibitor concentration
Sequence of urease (P07374 whole entry, looked up): as above
Experimental: The kinetics studies were performed by using five different concentrations (0.0, 5.0, 10.0, 15.0, and 20.0 µM) of each conjugate while using four different concentrations of urea (0.5, 1.0, 2.0, and 4.0) as substrate.
The Lineweaver–Burk plot is a powerful tool for analyzing enzyme kinetics and determining the mode of inhibition of an enzyme by a particular conjugate. […] In a Lineweaver–Burk plot, competitive inhibition is characterized by a change in the slope of the line (Km, also called the Michaelis constant), whereas the intercept remains the same (Vmax, the maximum rate). […] The inhibition constant (Ki) value of each conjugate was also calculated by plotting the slope of each line vs. different concentrations of each conjugate, also called secondary Lineweaver–Burk plots.
When there is mixed-type inhibition, the enzyme–substrate complex is bound by the inhibitor molecule, which prevents the reaction from happening, and increasing the substrate concentration will not remove this kind of inhibition. In a Lineweaver–Burk plot, mixed-type inhibition is characterized by a change in both the slope (Km) and the intercept of the line (Vmax).
With a few minor modifications, the urease inhibition experiment was carried out as described in our past research [3, 4, 5]. Briefly, DMSO was used to dissolve the synthesized conjugates (inhibitors, 250–0.49 µM) and the reference urease inhibitor (thiourea). Each falcon tube contained the respective inhibitor (20 µL), buffer (K2HPO4, 100 µL, 50 mM, pH = 6.8), and jack bean urease (20 µL); each tube was mixed well; and the mixtures were incubated for 30 min at 37 °C. Each tube received 400 µL of urea (20 mM) as a substrate, which was then incubated for 10 min at the same temperature. Afterward, each tube received 400 µL of phenol reagent and 750 µL of alkali reagent containing 0.1% active chlorine and was left at 37 °C for 50 min. Following the use of a spectrophotometer (Labdex, LX210DS, London, UK) to measure absorbance of the mixture in each tube at 595 nm, Equation (1) below was used to compute the percentage of urease inhibition: (1) % Urease inhibition=1−T/C×100 where, T and C are the absorbance of each well containing inhibitor and blank, respectively. The results are presented as mean ± SEM. Using a regression equation where 50% inhibition was seen, the IC50 values of each inhibitor were determined. Each inhibitor’s binding mechanism was tested at various doses (0–20 µM) for kinetics investigations. Urea was used as a substrate in different concentrations (0.5–4.0 mM) to determine the mode of inhibition of the inhibitors, including whether they acted as uncompetitive, mixed (non-competitive), or competitive. GraphPad PRISM 7.0 was used to create Lineweaver–Burk plots, which were then used to calculate the values of Km (app), Vmax (app), and Ki (inhibition constant).

SMILES: CC(C)Cc1ccc(C(C)C(=O)Nc2ccc(S(N)(=O)=O)cc2)cc1 (stereo not drawn) [Conjugate 4, 2-(4-Isobutylphenyl)-N-(4-sulfamoylphenyl)propanamide]
- IC50 [1]: 14.26 ± 0.14 µM
- % Inhibition (urease) ([1]; jack bean urease): 84.2%
- Ki [2]: 8.2 µM
- Mode of Inhibition [2]: Mixed
- Vmax (app) [2]: 3.64 µM/min
- melting point: 147 to 150 °C

SMILES: Cc1noc(NS(=O)(=O)c2ccc(NC(=O)C(C)c3ccc(CC(C)C)cc3)cc2)c1C (stereo not drawn) [Conjugate 5, N-(4-(N-(3,4-Dimethylisoxazol-5-yl)sulfamoyl)phenyl)-2-(4-isobutylphenyl)propanamide]
- IC50 [1]: 23.3 ± 0.41 µM
- % Inhibition (urease) ([1]; jack bean urease): 84.0%

SMILES: CC(C)Cc1ccc(C(C)C(=O)Nc2ccc(S(=O)(=O)Nc3nccs3)cc2)cc1 (stereo not drawn) [Conjugate 6, 2-(4-Isobutylphenyl)-N-(4-(N-(thiazol-2-yl)sulfamoyl)phenyl)propanamide]
- IC50 [1]: 9.95 ± 0.14 µM
- % Inhibition (urease) ([1]; jack bean urease): 90.6%
- Ki [2]: 0.17 µM
- Mode of Inhibition [2]: Competitive
- Vmax (app) [2]: 1.39 µM/min
- melting point: 184 to 185 °C

SMILES: CC(C)Cc1ccc(C(C)C(=O)Nc2ccc(S(=O)(=O)Nc3ncccn3)cc2)cc1 (stereo not drawn) [Conjugate 7, 2-(4-Isobutylphenyl)-N-(4-(N-(pyrimidin-2-yl)sulfamoyl)phenyl)propanamide]
- IC50 [1]: 50.2 ± 1.24 µM
- % Inhibition (urease) ([1]; jack bean urease): 71.6%
- urease inhibition (in words) [1]: moderate inhibition
- melting point: 171 to 173 °C

SMILES: Cc1ccnc(NS(=O)(=O)c2ccc(NC(=O)C(C)c3ccc(CC(C)C)cc3)cc2)n1 (stereo not drawn) [Conjugate 8, 2-(4-Isobutylphenyl)-N-(4-(N-(4-methylpyrimidin-2yl)sulfamoyl)phenyl)propanamide]
- IC50 [1]: 12.4 ± 0.54 µM
- % Inhibition (urease) ([1]; jack bean urease): 87.7%
- Ki [2]: 3.01 µM
- Mode of Inhibition [2]: Mixed
- Vmax (app) [2]: 3.0 µM/min
- melting point: 152 to 154 °C

SMILES: Cc1cc(NS(=O)(=O)c2ccc(NC(=O)C(C)c3ccc(CC(C)C)cc3)cc2)no1 (stereo not drawn) [Conjugate 9, 2-(4-Isobutylphenyl)-N-(4-(N-(5-methylisoxazol-3-yl)sulfamoyl)phenyl)propanamide]
- IC50 [1]: 39.9 ± 1.17 µM
- % Inhibition (urease) ([1]; jack bean urease): 76.7%
- urease inhibition (in words) [1]: moderate inhibition

SMILES: CC(=O)NS(=O)(=O)c1ccc(NC(=O)C(C)c2ccc(CC(C)C)cc2)cc1 (stereo not drawn) [Conjugate 10, N-(4-(N-Acetylsulfamoyl)phenyl)-2-(4-isobutylphenyl)propanamide]
- IC50 [1]: 10.3 ± 0.11 µM
- % Inhibition (urease) ([1]; jack bean urease): 88.9%
- Ki [2]: 2.62 µM
- Mode of Inhibition [2]: Mixed
- Vmax (app) [2]: 1.04 µM/min
- melting point: 152 to 155 °C

SMILES: CC(C)Cc1ccc(C(C)C(=O)Nc2ccc(S(=O)(=O)NC(=N)N)cc2)cc1 (stereo not drawn) [Conjugate 11, N-(4-(N-Carbamimidoylsulfamoyl)phenyl)-2-(4-isobutylphenyl)propanamide]
- IC50 [1]: 44.5 ± 1.41 µM
- % Inhibition (urease) ([1]; jack bean urease): 78.7%
- urease inhibition (in words) [1]: moderate inhibition
- melting point: 138 to 139 °C

SMILES: CC(C(=O)Nc1ccc(S(N)(=O)=O)cc1)c1ccc(-c2ccccc2)c(F)c1 (stereo not drawn) [Conjugate 12, 2-(2-Fluoro-[1,1′-biphenyl]-4-yl)-N-(4-sulfamoylphenyl)propanamide]
- IC50 [1]: 24.92 ± 0.24 µM
- % Inhibition (urease) ([1]; jack bean urease): 82.1%
- melting point: 147 to 150 °C

SMILES: Cc1noc(NS(=O)(=O)c2ccc(NC(=O)C(C)c3ccc(-c4ccccc4)c(F)c3)cc2)c1C (stereo not drawn) [Conjugate 13, N-(4-(N-(3,4-Dimethylisoxazol-5-yl)sulfamoyl)phenyl)-2-(2-fluoro-[1,1′-biphenyl]-4-yl)propanamide]
- IC50 [1]: 35.3 ± 0.21 µM
- % Inhibition (urease) ([1]; jack bean urease): 84.6%
- melting point: 128 to 130 °C

SMILES: CC(C(=O)Nc1ccc(S(=O)(=O)Nc2nccs2)cc1)c1ccc(-c2ccccc2)c(F)c1 (stereo not drawn) [Conjugate 14, 2-(2-Fluoro-[1,1′-biphenyl]-4-yl)-N-(4-(N-(thiazol-2-yl)sulfamoyl)phenyl)propanamide]
- IC50 [1]: 63.4 ± 1.15 µM
- % Inhibition (urease) ([1]; jack bean urease): 60.4%
- urease inhibition (in words) [1]: moderate inhibition
- melting point: 137 to 140 °C

SMILES: CC(C(=O)Nc1ccc(S(=O)(=O)Nc2ncccn2)cc1)c1ccc(-c2ccccc2)c(F)c1 (stereo not drawn) [Conjugate 15, 2-(2-Fluoro-[1,1′-biphenyl]-4-yl)-N-(4-(N-(pyrimidin-2-yl)sulfamoyl)phenyl)propanamide]
- IC50 [1]: 16.7 ± 0.23 µM
- % Inhibition (urease) ([1]; jack bean urease): 84.1%
- Ki [2]: 7.95 µM
- Mode of Inhibition [2]: Competitive
- Vmax (app) [2]: 1.89 µM/min
- melting point: 155 to 158 °C

SMILES: Cc1ccnc(NS(=O)(=O)c2ccc(NC(=O)C(C)c3ccc(-c4ccccc4)c(F)c3)cc2)n1 (stereo not drawn) [Conjugate 16, 2-(2-Fluoro-[1,1′-biphenyl]-4-yl)-N-(4-(N-(4-methylpyrimidin-2-yl)sulfamoyl)phenyl)propanamide]
- IC50 [1]: 17.5 ± 0.76 µM
- % Inhibition (urease) ([1]; jack bean urease): 86.1%
- Ki [2]: 1.3 µM
- Mode of Inhibition [2]: Mixed
- Vmax (app) [2]: 1.01 µM/min

SMILES: Cc1cc(NS(=O)(=O)c2ccc(NC(=O)C(C)c3ccc(-c4ccccc4)c(F)c3)cc2)no1 (stereo not drawn) [Conjugate 17, 2-(2-Fluoro-[1,1′-biphenyl]-4-yl)-N-(4-(N-(5-methylisoxazol-3-yl)sulfamoyl)phenyl)propanamide]
- IC50 [1]: 13.39 ± 0.11 µM
- % Inhibition (urease) ([1]; jack bean urease): 86.1%
- Ki [2]: 10.4 µM
- Mode of Inhibition [2]: Competitive
- Vmax (app) [2]: 1.56 µM/min

SMILES: CC(=O)NS(=O)(=O)c1ccc(NC(=O)C(C)c2ccc(-c3ccccc3)c(F)c2)cc1 (stereo not drawn) [Conjugate 18, N-(4-(N-Acetylsulfamoyl)phenyl)-2-(2-fluoro-[1,1′-biphenyl]-4-yl)propanamide]
- IC50 [1]: 14.8 ± 0.16 µM
- % Inhibition (urease) ([1]; jack bean urease): 87.1%
- Ki [2]: 4.11 µM
- Mode of Inhibition [2]: Mixed
- Vmax (app) [2]: 1.02 µM/min
- melting point: 187 to 190 °C

SMILES: CC(C(=O)Nc1ccc(S(=O)(=O)NC(=N)N)cc1)c1ccc(-c2ccccc2)c(F)c1 (stereo not drawn) [Conjugate 19, N-(4-(N-Carbamimidoylsulfamoyl)phenyl)-2-(2-fluoro-[1,1′-biphenyl]-4-yl)propanamide]
- IC50 [1]: 33.83 ± 0.18 µM
- % Inhibition (urease) ([1]; jack bean urease): 83.8%
- melting point: 163 to 165 °C

SMILES: NC(N)=S [Thiourea, reference compound]
- IC50 ([1]; jack bean urease, urea substrate, pH 6.8, 37 °C, mean ± SEM, read-out: IC50 (µM), Mean ± SEM): 22.6 ± 0.23 µM
- % Inhibition (urease) ([1]; jack bean urease): 92.3%
- Mode of Inhibition [2]: Competitive
- Ki ([2]; from secondary Lineweaver–Burk plots, read-out: Ki (inhibition constant)): 18.2 µM
- Vmax (app) [2]: 18.61 µM/min
- Km ([2]; slope of the line (Michaelis constant) at 20 µM of inhibitor concentration, read-out: Km (app)): 2180 µM
